Tests used:
[1] = system: glucocorticoid signaling genes in OCI-LY19 cells; test: RT2 Glucocorticoid Signaling PCR array; type: cell-based; settings: compared to DMSO; OCI cell line; 4 days
Procedure: (§1) Gene expression was normalized to array's B2M and fold change compared to DMSO was calculated using the ΔΔCt method.

[2] = system: glucocorticoid signaling genes in RL cells; test: RT2 Glucocorticoid Signaling PCR array; type: cell-based; settings: 4 days, 1 μM Cpd44, Pred 10-fold below 4-day IC50
Procedure: as §1

## CCN(c1cc(-c2ccc(CN3CCOCC3)cc2)cc(C(=O)NCc2c(C)cc(C)[nH]c2=O)c1C)C1CCOCC1 [Compound 44]
[1]
  ΔΔCT, ADARB1: −0.788
  ΔΔCT, ARID5B: 0.231
  ΔΔCT, PDCD7: 0.024
  ΔΔCT, SPHK1: 0.018
[2]
  ACTB Ct value: 15.664
  ACTB ΔCT (B2M): −3.694
  ADARB1 Ct value: 26.650
  ADARB1 ΔCT (B2M): 7.292
  AFF1 Ct value: 26.820
  AFF1 ΔCT (B2M): 7.462
  AK2 Ct value: 20.270
  AK2 ΔCT (B2M): 0.912
  AMPD3 Ct value: 27.191
  AMPD3 ΔCT (B2M): 7.833
  ANGPTL4 Ct value: 29.820
  ANGPTL4 ΔCT (B2M): 10.462
  ANXA4 Ct value: 24.395
  ANXA4 ΔCT (B2M): 5.037
  ARID5B Ct value: 27.333
  ARID5B ΔCT (B2M): 7.975
  ASPH Ct value: 23.466
  ASPH ΔCT (B2M): 4.108
  ATF4 Ct value: 18.269
  ATF4 ΔCT (B2M): −1.089
  B2M Ct value: 19.358
  B2M ΔCT (B2M): 0.000
  BCL6 Ct value: 20.289
  BCL6 ΔCT (B2M): 0.931
  CEBPA Ct value: 36.511
  CEBPA ΔCT (B2M): 17.153
  CEBPB Ct value: 23.765
  CEBPB ΔCT (B2M): 4.407
  COL4A2 Ct value: 31.782
  COL4A2 ΔCT (B2M): 12.424
  CREB1 Ct value: 23.217
  CREB1 ΔCT (B2M): 3.859
  CREB3 Ct value: 24.178
  CREB3L4 Ct value: 23.500
  CREB3L4 ΔCT (B2M): 4.142
  CREB3 ΔCT (B2M): 4.820
  CYB561 Ct value: 38.452
  CYB561 ΔCT (B2M): 19.094
  DDIT4 Ct value: 22.679
  DDIT4 ΔCT (B2M): 3.321
  DUSP1 Ct value: 25.422
  DUSP1 ΔCT (B2M): 6.064
  EDN1 Ct value: 31.815
  EDN1 ΔCT (B2M): 12.457
  EHD3 Ct value: 24.572
  EHD3 ΔCT (B2M): 5.214
  ERRFI1 Ct value: 31.705
  ERRFI1 ΔCT (B2M): 12.347
  FKBP5 Ct value: 21.757
  FKBP5 ΔCT (B2M): 2.399
  FOSL2 Ct value: 30.761
  FOSL2 ΔCT (B2M): 11.403
  GAPDH Ct value: 15.720
  GAPDH ΔCT (B2M): −3.638
  GDPD1 Ct value: 27.394
  GDPD1 ΔCT (B2M): 8.036
  GHRHR Ct value: 37.546
  GHRHR ΔCT (B2M): 18.188
  GLUL Ct value: 28.738
  GLUL ΔCT (B2M): 9.380
  GOT1 Ct value: 22.584
  GOT1 ΔCT (B2M): 3.226
  H6PD Ct value: 25.012
  H6PD ΔCT (B2M): 5.654
  HNRPLL Ct value: 22.844
  HNRPLL ΔCT (B2M): 3.486
  HPRT1 Ct value: 22.013
  HPRT1 ΔCT (B2M): 2.655
  IL1RN Ct value: 28.405
  IL1RN ΔCT (B2M): 9.047
  IL6R Ct value: 29.246
  IL6R ΔCT (B2M): 9.888
  IL10 Ct value: 31.498
  IL10 ΔCT (B2M): 12.140
  KLF13 Ct value: 22.854
  KLF13 ΔCT (B2M): 3.496
  MERTK Ct value: 30.691
  MERTK ΔCT (B2M): 11.333
  MT1E Ct value: 34.215
  MT1E ΔCT (B2M): 14.857
  MT2A Ct value: 24.279
  MT2A ΔCT (B2M): 4.921
  NFKBIA Ct value: 23.710
  NFKBIA ΔCT (B2M): 4.352
  NR3C1 Ct value: 22.616
  NR3C1 ΔCT (B2M): 3.258
  PDCD7 Ct value: 24.406
  PDCD7 ΔCT (B2M): 5.048
  PDP1 Ct value: 25.387
  PDP1 ΔCT (B2M): 6.029
  PER1 Ct value: 25.492
  PER1 ΔCT (B2M): 6.134
  PER2 Ct value: 24.378
  PER2 ΔCT (B2M): 5.020
  PIK3R1 Ct value: 23.908
  PIK3R1 ΔCT (B2M): 4.550
  PLEKHF1 Ct value: 30.520
  PLEKHF1 ΔCT (B2M): 11.162
  POU2F1 Ct value: 24.243
  POU2F1 ΔCT (B2M): 4.885
  POU2F2 Ct value: 21.769
  POU2F2 ΔCT (B2M): 2.411
  RASA3 Ct value: 26.279
  RASA3 ΔCT (B2M): 6.921
  RGS2 Ct value: 25.721
  RGS2 ΔCT (B2M): 6.363
  RPLP0 Ct value: 14.837
  RPLP0 ΔCT (B2M): −4.521
  SESN1 Ct value: 24.425
  SESN1 ΔCT (B2M): 5.067
  SGK1 Ct value: 26.262
  SGK1 ΔCT (B2M): 6.904
  SLC19A2 Ct value: 25.536
  SLC19A2 ΔCT (B2M): 6.178
  SNTA1 Ct value: 25.554
  SNTA1 ΔCT (B2M): 6.196
  SPHK1 Ct value: 31.119
  SPHK1 ΔCT (B2M): 11.761
  SPSB1 Ct value: 26.285
  SPSB1 ΔCT (B2M): 6.927
  STAT5A Ct value: 22.769
  STAT5A ΔCT (B2M): 3.411
  STAT5B Ct value: 22.683
  STAT5B ΔCT (B2M): 3.325
  TBL1XR1 Ct value: 21.663
  TBL1XR1 ΔCT (B2M): 2.305
  TNF Ct value: 24.712
  TNF ΔCT (B2M): 5.354
  TNFAIP3 Ct value: 26.896
  TNFAIP3 ΔCT (B2M): 7.538
  TSC22D3 Ct value: 23.300
  TSC22D3 ΔCT (B2M): 3.942
  USP2 Ct value: 21.420
  USP2 ΔCT (B2M): 2.062
  USP54 Ct value: 26.364
  USP54 ΔCT (B2M): 7.006
  VDR Ct value: 27.736
  VDR ΔCT (B2M): 8.378
  ZFP36 Ct value: 24.374
  ZFP36 ΔCT (B2M): 5.016
  ZHX3 Ct value: 29.785
  ZHX3 ΔCT (B2M): 10.427
  ZNF281 Ct value: 23.667
  ZNF281 ΔCT (B2M): 4.309
[2]; vs DMSO
  AFF1 ΔΔCT: −2.006
  ATF4 ΔΔCT: 0.003
  CEBPB ΔΔCT: −0.004
  CREB3L4 ΔΔCT: −0.760
  HNRPLL ΔΔCT: 0.309
  LOX ΔΔCT: −0.580
  NFKBIA ΔΔCT: 0.854
  NR3C1 ΔΔCT: 0.067
  PDCD7 ΔΔCT: 0.006
  PLEKHF1 ΔΔCT: 0.050
  POU2F1 ΔΔCT: −0.027
  POU2F2 ΔΔCT: −0.584
  RASA3 ΔΔCT: −0.009
  SNTA1 ΔΔCT: 0.040
  STAT5A ΔΔCT: 0.001
  STAT5B ΔΔCT: −0.094
  ZFP36 ΔΔCT: −0.036
  ZNF281 ΔΔCT: 0.046

Reference: patent US10463671B2, “Combination therapy for treating cancer” (Epizyme, Inc., priority 2013, dated 2019)
